{
  "source": "patent US6943000B2",
  "about": "“JNK3 modulators and methods of use” (priority 1997, dated 2005)",
  "format_in_all_cases": "in vivo, mouse",
  "key": {"[1]": {"test_system": "mice", "experiment": "Pentetrazole (PTZ)-induced seizures in wild-type and JNK3(−/−) mice", "from_the_text": "Since the resistance to KA-induced seizures varied between littermates (+/+ and +/− are less resistant than −/− mice), the observed differential susceptibility cannot be attributed to a difference between mouse strains (Schauwecker and Steward, Proc. Nat. Acad. Sci. USA 94:4103-4108, 1997). However, the resistance of JNK3 deficient mice to KA-induced seizures could be due to decreased drug penetration across the blood-brain barrier or an increased GABA (gamma-aminobutyric acid) inhibitory postsynaptic potential (IPSP), or the ablation of a specific signal transduction pathway mediated by the JNK3 protein kinase. To distinguish between these possibilities, the response of JNK3 (−/−) and wild-type mice to another epileptogenic agent, pentetrazole (PTZ) (Sigma), was examined. PTZ was selected due to its ability to induce seizures by blocking the GABA-IPSPs (Ben-Ari et al., Neurosci. 6:1361-1391, 1981).\nThus, the differential susceptibility to KA toxicity in JNK3(−/−) mice can neither be explained as a consequence of poor drug delivery to the nervous system nor by potent GABA-IPSPs in the neural circuit. Furthermore, we examined the expression of the kainate-type glutamate receptor subunits GluR5-7 (Pharmingen cat. No. 60006E) by immunocytochemistry using standard methods."}, "[2]": {"test_system": "AP-1 transcriptional activity", "experiment": "KA-induced AP-1 transcriptional activity (luciferase assay, AP1-luc mice)", "conditions": "KA 30 mg/kg i.p.", "from_the_text": "Since the phosphorylation of c-Jun is an important initial event during the induction of AP-1 transcriptional activity (Whitemarsh et al., supra; Yang et al., supra), whether the observed attenuation of c-Jun phosphorylation would lead to decreased induction of AP-1 transcriptional activity in JNK3 (−/−) mice was examined. JNK(-1-) mice were crossed with transgenic AP-1 luciferase (AP1-luc) mice (Rincon et al., Embo. J. 13:4370-4381, 1994) and progeny back crossed. The JNK3(−/−)/API-Luc(−/+) mice were used in experiments with JNK3(+/+) mice to compare the level of KA-induced AP-1 transcriptional activity in the presence or absence of JNK3. The AP1-luc mice contain the firefly luciferase gene under the control of four copies of a consensus AP-1 binding site in the context of the minimal rat prolactin promoter. It has been established that the expression of luciferase in these mice is due to the presence of the AP-1 regulatory element.\nIn the luciferase assay, mice were sacrificed at intervals after injection of KA (30 mg/kg, i.p.), and relative luciferase activity compared with that detected in hippocampal lysates obtained from mice injected with vehicle (saline). Mice were decapitated, brains were dissected, and brain tissues were immediately lysed in buffer containing 25 mM Hepes pH 7.4, 1% TRITON®X-100, 1 mM EDTA, 1 mM phenylmethyl sulfonyl fluoride, and 10 μg/ml leupeptin (Promega, Madison, Wis.). Luciferase activity was measured as described in Rincon and Flavell (Embo. J. 13:4370-4381, 1994). The injection of KA (30 mg/kg, i.p.) caused a large induction of AP-1 transcriptional activity in the hippocampus of wild-type mice, as evidenced by the induction of luciferase activity.\nThe relative luciferase activity in the hippocampus and cerebellum prepared from wild-type (+/+) and JNK3 (−/−) mice was measured following KA injection. Each time point represents the mean of three to five (+SEM) individual animals. […]"}, "[3]": {"test_system": "c-Jun phosphorylated at Ser-73", "experiment": "KA-induced phosphorylation of c-Jun in hippocampus (immunocytochemistry)", "conditions": "KA 30 mg/kg i.p., two hours after injection", "method": "To further define this phenomenon, the distribution of KA-induced c-Fos and c-Jun immunoreactivity along the synaptic circuit of the hippocampus was examined. In these experiments, homozygous mutant and control wild-type mice were killed and fixed by transcardial perfusion of 4% paraformaldehyde at 2 or 6 hours after the injection of KA (30 mg/kg, i.p.). Brains from both groups were removed, post-fixed for one hour, and sectioned on a Vibratome ([…]). Tissue sections were processed by immunocytochemistry to detect the expression of c-June (Santa Cruz, cat# sc-45), c-Fos (Santa Cruz, cat# sc-52), and phospho-specific c-Jun (Ser-73) (New England Biolabs, #9164S). Sections were floated in a solution of the primary antibody (diluted 200× in PBS) and incubated overnight at room temperature. Secondary antibody incubation, avidin-biotin conjugated peroxidase (Vectastain Elite ABC kit, Vector Lab.), and DAB (3, 3′-diaminobenzidine, Sigma) reactions were performed using standard procedures (Hsu et al., supra). In the absence of KA, there was no detectable c-Fos expression and only a few c-Jun-positive cells within the dentate gyrus. […]\nIn addition, there was a dynamic change of the distribution of phosphorylated c-Jun in the wild type mouse hippocampus. […] In contrast, no labeling of phosphorylated c-Jun was detected in the JNK3(−/−) mice at the same time point. […]"}, "[4]": {"test_system": "hippocampal neurons", "experiment": "Kainate-induced neuronal damage in the hippocampus (Nissl's stain, GFAP, TUNEL, toluidine stain)", "method": "These experiments were performed as follows. Wild-type and JNK3 (−/−) mice were killed and fixed by transcardial perfusion of 4% paraformaldehyde and 1.5% glutaraldehyde three days after the injection of KA (30 mg/kg, i.p.). Semithin and thin sections of brain were prepared using a Vibratome and embedded in Epon. Tissue blocks were prepared using a microtome with a diamond tube for 1 μm-thick semithin sections examined by toluidine blue staining, and for ultrathin sections examined by electron microscopy. Nissl's stain was used for initial examination of damage to the hippocampus (Kluver et al., J. Neuropath. Exp. Neuro. 12:400-403, 1953). GFAP immunocytochemistry was also used to assess cell destruction in the hippocampus (Hsu et al., supra). Nissl's staining was also performed as described above. TUNEL assays, used to evaluate apoptosis, were performed using cryostat sections (50 μm) of cerebral hemispheres that were cryoprotected with sucrose. The TUNEL assay was modified from the terminal deoxynucleotidyl transferase (TdT)-mediated dUTP nick end labeling assay (Gavrieli et al., J. Cell. Biol. 119:493-501, 1992). Briefly, tissue sections, directly mounted on a salinated slide, were permeablized with 2% TRITON® X-100 (20 minutes at room temperature) and then incubated for nick end-labeling for 2 hours at 37° C. using 0.32 U/μl TdT (Boehringer Mannheim, cat# 220582) and 2 μM digoxigenin-11-dUTP (Boehringer Mannheim, cat# 1573152) in a final volume of 40 μl. The tissues were incubated with anti-digoxigenin antibody (Boehringer Mannheim, cat# 1333062) diluted 500-fold, and processed for immunocytochemistry using standard procedures (Hsu et al., supra).\nThe damage to the hippocampus caused by KA was initially examined by Nissl's stain. The KA-induced cell loss caused either a breach of staining of the pyramidal neurons in the CA3 region or a diffuse sparse staining throughout the CA1 subfield. […] Groups of small pyknotic nuclei and positively TUNEL-labeled cells were found in the hippocampal CA3 subfield devoid of Nissl's staining. […] Since the TUNEL method and the pyknosis morphology only indicated the extent of cell damage at one time point of a dynamic process, immunostaining of damage-induced GFAP was also used as an independent assessment of the extent of cell destruction in the hippocampus. Consistent with the patterns of Nissl's, toluidine, and TUNEL staining, an increased number of strongly GFAP-labeled astrocytes was found either in the hippocampal CA3 or CAl regions. Thus, a combination of Nissl's stain, GFAP immunocytochemistry, TUNEL method, and toluidine stain of semithin sections was used to classify the KA-induced damage in the mouse hippocampus.\nA total of 17 wild-type and 18 JNK3(−/−) mice were examined. The table was compiled from two sets of data. First, wild-type (n=11) and JNK3 (−/−) (n=10) mice were sacrificed on the fifth day after a single injection of KA (30 mg/kg, i.p.). Second, wild-type (n=6) and JNK3 (−/−) (n=8) mice received an injection of KA (30 mg/kg, i. p.) for five consecutive days and examined two days following the final injection. […] The ratio of no cell loss/CA3 lesion/CA3+CA1 lesion was 2/7/2 in the single-injection experiments, and 2/2/2 in the multiple injection experiments."}, "[5]": {"test_system": "hippocampal neurons", "experiment": "Kainate-induced neuronal damage in the hippocampus (Nissl's stain, GFAP, TUNEL, toluidine stain)", "conditions": "KA 45 mg/kg, JNK2(−/−) mice as printed"}, "[6]": {"test_system": "mice", "experiment": "KA-induced seizures in wild-type and JNK3(−/−) mice", "method": "JNK3(−/−) mice and their wild-type littermates were injected intraperitoneally (i.p.) with 30 mg/kg KA to induce seizures (Ben-Ari, supra). In wild-type mice, the administration of KA first induced “staring spells” with abnormal body posture, then progressed to head nodding (“wet-dog shakes”), fore-paw tremor, rearing, loss of postural control, and eventually, continuous convulsions. […] Wild-type and heterozygous mice developed motor symptoms of seizures, including rearing, at 30 to 40 minutes post-injection. The JNK3 (−/−) mice, in contrast, developed much milder symptoms, mainly consisting of “staring” spells and occasional myoclonic tremors. […] Further, JNK3(−/−) mice recovered from the drug administration more rapidly than wild-type mice (FIG. 7). Seizure classifications as shown in FIGS. 7 and 8 are: 1, arrest of motion; 2, myoclonic jerks of the head and neck, with brief twitching movements; 3, unilateral clonic activity; 4, bilateral forelimb tonic and clonic activity; and 5, generalized tonic-clonic activity with loss of postural tone, often resulting in death."}, "[7]": {"conditions": "KA 30 mg/kg i.p., JNK3 genotype +/+"}, "[8]": {"conditions": "KA 30 mg/kg i.p., JNK3 genotype −/−"}, "[9]": {"conditions": "KA 30 mg/kg i.p., wild-type mice"}},
  "data": [
    {"smiles": "C1CCc2nnnn2CC1", "note": "[PTZ, pentetrazole]", "values": [
      {"measurement": "seizure severity, JNK3(−/−) mice versus wild-type littermates", "setting": "[1]; PTZ 30, 40, 50, 60 mg/kg i.p.", "result": "comparable severity"},
      {"measurement": "time to abrupt general tonic-clonic seizures after injection", "setting": "[1]; PTZ i.p.", "result": "within five minutes"}
    ]},
    {"smiles": "C=C(C)[C@H]1CN[C@H](C(=O)O)[C@H]1CC(=O)O", "note": "[KA, kainic acid]", "values": [
      {"measurement": "AP-1 activity in hippocampus, wild-type compared with JNK3(−/−) mice", "setting": "[2]; 15 hours after injection", "result": "approximately four-fold greater"},
      {"measurement": "AP-1 activity in hippocampus, wild-type compared with JNK3(−/−) mice", "setting": "[2]; three days after injection", "result": "more than six times higher"},
      {"measurement": "time of peak luciferase activity in hippocampus", "setting": "[2]; wild-type AP1-luc mice", "result": "three days"},
      {"measurement": "phosphorylated c-Jun in hippocampus", "setting": "[3]; JNK3(−/−) mice", "result": "only a trace amount"},
      {"measurement": "phosphorylated c-Jun in the dentate gyrus and CA3/CA4 region of the hippocampus", "setting": "[3]; wild-type mice", "result": "high level of phosphorylated c-Jun"},
      {"measurement": "hippocampal damage", "setting": "[4]; KA 30 mg/kg i.p., JNK3(−/−) mice (n=18)", "result": "no apparent hippocampal damage"},
      {"measurement": "Including CA1 cell loss", "setting": "[4]; [7]", "result": "4 number of animals"},
      {"measurement": "No perceivable cell loss", "setting": "[4]; [7]", "result": "4 number of animals"},
      {"measurement": "Selective CA3 cell loss", "setting": "[4]; [7]", "result": "9 number of animals"},
      {"measurement": "Including CA1 cell loss", "setting": "[4]; [8]", "result": "0 number of animals"},
      {"measurement": "No perceivable cell loss", "setting": "[4]; [8]", "result": "18 number of animals"},
      {"measurement": "Selective CA3 cell loss", "setting": "[4]; [8]", "result": "0 number of animals"},
      {"measurement": "animals with damage of the hippocampal CA3 region", "setting": "[4]; [9]", "result": 53, "unit": "%"},
      {"measurement": "animals with damage of the hippocampal CA3 region (fraction)", "setting": "[4]; [9]", "result": "9/17"},
      {"measurement": "animals with massive cell loss throughout the entire hippocampal CA1 region", "setting": "[4]; [9]", "result": 24, "unit": "%"},
      {"measurement": "animals with massive cell loss throughout the entire hippocampal CA1 region (fraction)", "setting": "[4]; [9]", "result": "4/17"},
      {"measurement": "ratio of no cell loss/CA3 lesion/CA3+CA1 lesion", "setting": "[4]; wild-type mice, KA 30 mg/kg i.p. for five consecutive days, examined two days after final injection", "result": "2/2/2"},
      {"measurement": "ratio of no cell loss/CA3 lesion/CA3+CA1 lesion", "setting": "[4]; wild-type mice, single injection of KA 30 mg/kg i.p., sacrificed on the fifth day", "result": "2/7/2"},
      {"measurement": "animals with cell damage (fraction)", "setting": "[5]", "result": "2/15"},
      {"measurement": "animals with cell damage", "setting": "[5]; p<0.005", "result": 13, "unit": "%"},
      {"measurement": "seizure severity", "setting": "[6]; KA 30 mg/kg i.p., JNK3(−/−) mice", "result": "did not develop grand mal seizures"},
      {"measurement": "time at which seizure activities subsided", "setting": "[6]; [9]", "result": "one hour after injection"},
      {"measurement": "survival", "setting": "[6]; KA 45 mg/kg i.p., JNK3(−/−) mice", "result": "all of the JNK3(−/−) mice survived"},
      {"measurement": "mice that died from continuous tonic clonic convulsions", "setting": "[6]; KA 45 mg/kg i.p., wild-type mice", "result": "more than 60%"}
    ]}
  ]
}
